Results from patent US5104800A, “One-step cephalosporin C amidase enzyme” (Merck & Co., Inc., priority 1989, dated 1992).

What was measured:
[1] = test system: cephalosporin C amidase from Bacillus megaterium (alpha(2) beta(2) oligomer, 722 amino acid primary translation product); test: Inhibitors of purified cephalosporin C amidase; type: biochemical; conditions: for inhibition of the enzyme (in words): concentration not given; for inhibition at 10 mM (potent inhibitors): inhibitor at 10 mM
Description: (§1) The amino acid sequence of the cephalosporin C amidase enzyme of the present invention, recited further above, was deduced by DNA sequence analysis of the gene coding for the enzyme, and the accuracy of the results have been verified by sequencing three independent isolates from three different strains of Bacillus megaterium. However, since 100% accuracy cannot be totally assured, it has been considered desirable to also identify the cephalosporin C amidase enzyme of the present invention in terms of a number of physical and chemical attributes which it uniquely has. Purification of the enzyme for which such data has been derived is explained in more detail further below. Those data are set out in the following table:
(§2) Assay of activity: incubate 180 μl enzyme with 20 μl 20 mg/ml cephalosporin C; after 3 hours at 37° determine 7-ACA by HPLC assay
(§3) Cultures of B. megaterium were grown as described. The cells were removed from the broth by centrifugation. The broth was brought to 55% saturation with respect to ammonium sulfate and the precipitate removed by centrifugation. The supernatant was then brought to 75% saturated with respect to ammonium sulfate and the cephalosporin C amidase containing precipitate pelleted by centrifugation. This pellet was resuspended in 1/10 of the original culture volume of 15% (w/v) ammonium sulfate, 50 mM sodium phosphate, 5% (w/v) glycerol pH 7.5.
The 10× concentrated enzyme was brought from 15% to 18% w/v ammonium sulfate by addition of saturated ammonium sulfate and filtered through a 0.4 micron filter. Four mls of this was injected onto a Synchrome Synchropak propyl column (25 cm×[…]) which was previously equilibrated with 18% (w/v) ammonium sulfate, 50 mM potassium phosphate pH 7.0. The flow rate was 1 ml/min. For ten minutes after injection the mobile phase composition remained unchanged. From 10 to 40 minutes the mobile phase was changed in a linear gradient to 0% ammonium sulfate, 50 mM sodium phosphate pH 7. From 40-50 minutes the mobile phase composition remained unchanged. Two fractions/min. were collected and assayed for cephalosporin C amidase activity. The activity eluted from 22 to 25 minutes.
The five fractions with the most activity were pooled and concentrated by ultrafiltration in a Centricon 30 (Amicon) to about 50 μl. This concentrated enzyme was injected onto a Zorbox GF 250 (DuPont) column ([…]). The column had been equilibrated and was run in 10% (w/v) ammonium sulfate, 50 mM potassium phosphate pH 7.0 at 1 ml/min. Five fractions/min. were collected. All of the cephalosporin C amidase activity was recovered in two fractions at approximately 9 minutes after injection.
1. The substrate stock solution was prepared by dissolving 20 mg of cephalosporin C in 1 ml of water.
2. Cephalosporin C stock solution (20 μl) was added to the recovered enzyme (180 μl) and the mixture was incubated at 37° C. for 3 hours. Formation of 7-ACA was monitored by HPLC.

[2] = test system: cephalosporin C amidase from Bacillus megaterium (alpha(2) beta(2) oligomer, 722 amino acid primary translation product); test: Kinetic characterisation of purified cephalosporin C amidase (Km, turnover); type: biochemical
Description: as §1, §2
as §3, with “This pellet was resuspended in 1/10 of the original culture volume of 15% (w/v) ammonium sulfate, 50 mM sodium phosphate, 5% (w/v) glycerol pH 7.5.” left out
2. […] Formation of 7-ACA was monitored by HPLC.

SMILES	inhibition at 10 mM (potent inhibitors) [1] [%]	other results
CC1(C)S[C@@H]2[C@H](N)C(=O)N2[C@H]1C(=O)O [6-APA]		inhibition of the enzyme (in words) [1]: NOT inhibited
C[C@@H](N)C(=O)O [D-alanine]	> 90	
NC(=O)CC[C@H](N)C(=O)O [Glutamine]	> 90	
NCC(=O)O [Glycine]	> 90	
C[C@H](N)C(=O)O [L-alanine]	> 90	
CC1(C)S[C@@H]2[C@H](NC(=O)Cc3ccccc3)C(=O)N2[C@H]1C(=O)O [PenG, penicillin G, reference compound]		inhibition of the enzyme (in words) [1]: NOT inhibited
CC(=O)OCC1=C(C(=O)O)N2C(=O)[C@@H](NC(=O)CCC[C@@H](N)C(=O)O)[C@H]2SC1 [cephalosporin C]		Km ([2]; substrate cephalosporin C): 1300 µM
O=C(O)CCCC(=O)Nc1ccc(C(=O)O)cc1 [glutaryl-4-aminobenzoate, reference compound]		turnover number, fold higher than with cephalosporin C ([2]; substrate glutaryl-4-aminobenzoate (GAB) compared with cephalosporin C): 20 fold
